pIC50: −log10 of the molar value.
Tests used:
full-length human BTK = biological target: T1, full-length human BTK (Homo sapiens, UniProt Q06187); test: BTK IC50 Enzyme Assay (Assay A), microfluidic off-chip mobility shift kinase assay; assay type: biochemical; conditions: kinKDR peptide substrate, 90 min at 27° C.
T1 construct: 2.5× stocks of full-length human BTK (08-080) from CarnaBio USA, Inc; purchased CarnaBio USA, Inc., Natick, Mass; 08-080

[1] = tested on: anti-IgM-induced expression of CD69 in freshly isolated human peripheral blood mononuclear cells (PBMCs); test: Assay B: inhibition of anti-IgM-induced expression of CD69 on CD19 positive cells (B cells) in human PBMCs; assay type: cell-based; conditions: PBMC, 1 h pre-treatment, overnight anti-human IgM stimulation, CD69 on CD19 positive cells by flow cytometry, read-out: Assay B (mol/L (M))
Protocol: Btk is critical for mediating the signalling of B cell antigen receptor (BCR) after anti-IgM stimulation. Based on this principle, a functional cell-based assay was established to determine the potency of compounds at inhibiting anti-IgM-induced expression of CD69, a downstream BCR signalling event, in freshly isolated human peripheral blood mononuclear cells (PBMCs). In the assay, a 90 μl PBMC suspension containing 2.5×10^5 cells was pre-treated with 10 μl of test compound at various concentrations for an hour, and then incubated overnight (approximately 16-18 hours) with 5 μl 420 μg/ml affiniPure F(ab′)2 fragment goat anti-human IgM Fc fragment per well (Dianova, Cat. No.: 109-006-129). After the incubation, the cells were washed and immunostained with an APC labelled mouse anti-human CD69 (BD Biosciences; clone: FN50), a PerCP-Cy5.5 labelled mouse anti-human CD19 (BD Biosciences; clone: SJ25C1) and a FITC-labelled mouse anti-human CD3 (BD Biosciences; clone: HIT3a), and fixed for flow cytometric analysis of CD69 expression on CD19 positive cells (B cells). The percentage of CD69 expressing CD19 positive cells was plotted against the concentrations of test compounds to obtain a concentration response curve, and calculate an IC50 value as a measure of the potency of test compounds in the assay.

T1 sequence (Q06187 whole entry): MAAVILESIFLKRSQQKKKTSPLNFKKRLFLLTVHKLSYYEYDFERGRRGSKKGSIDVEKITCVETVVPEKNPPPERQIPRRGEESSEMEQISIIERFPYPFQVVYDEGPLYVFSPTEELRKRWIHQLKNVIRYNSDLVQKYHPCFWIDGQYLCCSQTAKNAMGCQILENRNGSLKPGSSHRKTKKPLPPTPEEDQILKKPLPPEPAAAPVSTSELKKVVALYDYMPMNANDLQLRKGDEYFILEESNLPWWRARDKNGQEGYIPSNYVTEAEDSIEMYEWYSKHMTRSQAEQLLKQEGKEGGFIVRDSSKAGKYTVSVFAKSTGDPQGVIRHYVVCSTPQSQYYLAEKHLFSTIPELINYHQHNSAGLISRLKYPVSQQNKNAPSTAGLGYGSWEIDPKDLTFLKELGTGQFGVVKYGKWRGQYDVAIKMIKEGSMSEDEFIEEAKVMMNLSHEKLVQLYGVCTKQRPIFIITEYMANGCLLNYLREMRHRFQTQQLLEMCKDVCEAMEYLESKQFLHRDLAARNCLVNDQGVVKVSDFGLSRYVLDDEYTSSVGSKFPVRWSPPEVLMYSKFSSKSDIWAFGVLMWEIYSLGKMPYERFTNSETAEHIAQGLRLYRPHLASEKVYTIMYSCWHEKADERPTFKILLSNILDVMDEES

pIC50 (full-length human BTK)	Structure (SMILES)	IC50 [1]
> 7.00	N#CN1CCC(n2ccc3ncnc(Oc4ccc(Oc5ccccc5)cc4)c32)C1 (stereo not shown) [Compound 60, 3-[4-(4-phenoxyphenoxy)-5H-pyrrolo[3,2-d]pyrimidin-5-yl]pyrrolidine-1-carbonitrile]	1e-07 to 1e-06 M
> 7.00	N#CN1CC[C@H](n2ccc3ncnc(Oc4ccc(Oc5ccccc5)cc4)c32)C1 [Compound 72, (3S)-3-[4-(4-phenoxyphenoxy)-5H-pyrrolo[3,2-d]pyrimidin-5-yl]pyrrolidine-1-carbonitrile]	1e-07 to 1e-06 M

— US9738648B2, “Pyridines, pyrimidines, and pyrazines, as BTK inhibitors and uses thereof” (Merck Patent GmbH, priority 2013, dated 2017)
